According to US9795607B2, “Substituted pyrrolopyrimidine compounds, compositions thereof, and methods of treatment therewith” (Signal Pharmaceutical, LLC, priority 2013, dated 2017):

test system: Triple negative breast cancer cell line CAL51; test: Cell Titer Glo proliferation assay, CAL51; format: cell-based; details: Homo sapiens, CAL-51; CAL51 cell proliferation (Table 1); read-out: Act. Level
Procedure: Cell Titer Glo Proliferation Assay.
Triple negative breast cancer cell line CAL51 was purchased from DSMZ. […] Allcell lines were maintained in growth media consisting of 90% high glucose Dulbecco's Modified Eagle Medium or RPMI1640 (Invitrogen), 10% fetal bovine serum (Hyclone), and 2 mM L-glutamine (Invitrogen). […] After overnight culture, compound stock (30 mM) was diluted serially in DMSO, further diluted in growth media, and was added to each well as a 10× concentrated solution in a volume of 11 μL, mixed, and allowed to incubate with cells. The compound vehicle (DMSO) was maintained at a final concentration of 0.2% in all wells. After 72 h, 100 μL of Cell Titer Glo solution (Promega) was added to each well of the 96-well plate. The plate was placed on a shaker for 2 minutes. After 10 minutes incubation, the luminescence signal was detected with Envision microplate reader (Perkin Elmer).

Row | IC50 [nM] | SMILES
1 | < 100 | COc1nc(Nc2ccc(C(=O)N(C)C)cc2C)nc2[nH]cc(-c3ccc4c(C)noc4c3)c12 [Example 400, 4-(4-methoxy-5-(3-methylbenzo[d]isoxazol-6-yl)-7H-pyrrolo[2,3-d]pyrimidin-2-ylamino)-N,N,3-trimethylbenzamide]
2 | < 100 | COc1cc(C(=O)NC2COC2)ccc1Nc1nc(OC)c2c(-c3cc(C)nc(Cl)c3)c[nH]c2n1 [Example 437, 4-(5-(2-chloro-6-methylpyridin-4-yl)-4-methoxy-7H-pyrrolo[2,3-d]pyrimidin-2-ylamino)-3-methoxy-N-(oxetan-3-yl)benzamide]
3 | 400 to 1000 | COc1nc(Nc2ccc(C(=O)N(C)C)cc2C)nc2[nH]cc(-c3ccnc(F)c3)c12 [Example 409, 4-(5-(2-fluoropyridin-4-yl)-4-methoxy-7H-pyrrolo[2,3-d]pyrimidin-2-ylamino)-N,N,3-trimethylbenzamide]
4 | 1000 to 10000 | COc1cc(C2CCOCC2)ncc1Nc1nc(OC)c2c(-c3ccnc(F)c3)c[nH]c2n1 [Example 416, 5-(2-fluoropyridin-4-yl)-4-methoxy-N-(4-methoxy-6-(tetrahydro-2H-pyran-4-yl)pyridin-3-yl)-7H-pyrrolo[2,3-d]pyrimidin-2-amine]
5 | < 100 | CNC(=O)c1ccc(Nc2nc(OC)c3c(-c4ccc5nc(C)oc5c4)c[nH]c3n2)c(Cl)c1 [Example 427, 3-chloro-4-(4-methoxy-5-(2-methylbenzo[d]oxazol-6-yl)-7H-pyrrolo[2,3-d]pyrimidin-2-ylamino)-N-methylbenzamide]
6 | < 100 | CCCc1cc(C(=O)NC)ccc1Nc1nc(OC2CCOCC2)c2c(-c3ccc4nc(C)oc4c3)c[nH]c2n1 [Example 436, N-methyl-4-(5-(2-methylbenzo[d]oxazol-6-yl)-4-(tetrahydro-2H-pyran-4-yloxy)-7H-pyrrolo[2,3-d]pyrimidin-2-ylamino)-3-propylbenzamide]
7 | 400 to 1000 | COc1cc(C(=O)N(C)C)ccc1Nc1nc(OC)c2c(-c3ccnc(F)c3)c[nH]c2n1 [Example 412, 4-(5-(2-fluoropyridin-4-yl)-4-methoxy-7H-pyrrolo[2,3-d]pyrimidin-2-ylamino)-3-methoxy-N,N-dimethylbenzamide]
8 | < 100 | COc1nc(Nc2ccc(C(=O)N(C)C)cc2C)nc2[nH]cc(-c3cc(C)nc(F)c3)c12 [Example 420, 4-(5-(2-fluoro-6-methylpyridin-4-yl)-4-methoxy-7H-pyrrolo[2,3-d]pyrimidin-2-ylamino)-N,N,3-trimethylbenzamide]
9 | 100 to 400 | COc1nc(Nc2ccc3c(cnn3C)c2C)nc2[nH]cc(-c3ccncc3)c12 [Example 419, N-(1,4-dimethyl-1H-indazol-5-yl)-4-methoxy-5-(pyridin-4-yl)-7H-pyrrolo[2,3-d]pyrimidin-2-amine]
10 | < 100 | CNC(=O)c1ccc(Nc2nc(OC3CCC(C)(O)CC3)c3c(-c4ccc5nc(C)oc5c4)c[nH]c3n2)c(Cl)c1 (stereo not shown) [Example 429, 3-chloro-4-(4-((1s,4s)-4-hydroxy-4-methylcyclohexyloxy)-5-(2-methylbenzo[d]oxazol-6-yl)-7H-pyrrolo[2,3-d]pyrimidin-2-ylamino)-N-methylbenzamide]

same assay, conditions: Homo sapiens, CAL-51; CAL51 cell proliferation, Cell Titer Glo; read-out: Act. Level

Row | IC50 [nM] | SMILES
11 | 100 to 400 | CNC(=O)c1ccc(-c2c[nH]c3nc(Nc4ccc(C(=O)NC5CN(C)C5)cc4OC)nc(OC4CCC(C)(O)CC4)c23)cc1 (stereo not shown) [Example 349, 4-(4-((1s,4s)-4-hydroxy-4-methylcyclohexyloxy)-5-(4-(methylcarbamoyl)phenyl)-7H-pyrrolo[2,3-d]pyrimidin-2-ylamino)-3-methoxy-N-(1-methylazetidin-3-yl)benzamide]
12 | 100 to 400 | COc1cc(C(=O)NC2CN(C)C2)ccc1Nc1nc(OC2CCCC2)c2c(-c3ccc(-c4ncc[nH]4)cc3)c[nH]c2n1 [Example 361, 4-(5-(4-(1H-imidazol-2-yl)phenyl)-4-(cyclopentyloxy)-7H-pyrrolo[2,3-d]pyrimidin-2-ylamino)-3-methoxy-N-(1-methylazetidin-3-yl)benzamide]
13 | 100 to 400 | Cc1nc2ccc(-c3c[nH]c4nc(Nc5cnn(C(C)C)c5Cl)nc(OC5CCCC5)c34)cc2o1 [Example 351, N-(5-chloro-1-isopropyl-1H-pyrazol-4-yl)-4-(cyclopentyloxy)-5-(2-methylbenzo[d]oxazol-6-yl)-7H-pyrrolo[2,3-d]pyrimidin-2-amine]
14 | 1000 to 10000 | CNC(=O)c1ccc(Nc2nc(OC3CCCC3)c3c(-c4c(C)noc4C)c[nH]c3n2)c(OC)c1 [Example 321, 4-(4-(cyclopentyloxy)-5-(3,5-dimethylisoxazol-4-yl)-7H-pyrrolo[2,3-d]pyrimidin-2-ylamino)-3-methoxy-N-methylbenzamide]
15 | < 100 | CNC(=O)c1ccc(-c2c[nH]c3nc(Nc4ccc(C(=O)NC5COC5)cc4OC)nc(OC4CCC(C)(O)CC4)c23)cc1 (stereo not shown) [Example 337, 4-(4-((1s,4s)-4-hydroxy-4-methylcyclohexyloxy)-5-(4-(methylcarbamoyl)phenyl)-7H-pyrrolo[2,3-d]pyrimidin-2-ylamino)-3-methoxy-N-(oxetan-3-yl)benzamide]
16 | 100 to 400 | CNC(=O)c1ccc(-c2c[nH]c3nc(Nc4ccc(C(=O)NC5COC5)cc4OC)nc(OC4COC4)c23)cc1 [Example 359, 3-methoxy-4-(5-(4-(methylcarbamoyl)phenyl)-4-(oxetan-3-yloxy)-7H-pyrrolo[2,3-d]pyrimidin-2-ylamino)-N-(oxetan-3-yl)benzamide]
17 | 100 to 400 | COc1cc(C(=O)N2C[C@H]2CO)ccc1Nc1nc(OC2CCCC2)c2c(-c3ccc4nc(C)oc4c3)c[nH]c2n1 [Example 350, (S)-(4-(4-(cyclopentyloxy)-5-(2-methylbenzo[d]oxazol-6-yl)-7H-pyrrolo[2,3-d]pyrimidin-2-ylamino)-3-methoxyphenyl)(2-(hydroxymethyl)aziridin-1-yl)methanone]
18 | < 100 | COc1cc(C(=O)NC2COC2)ccc1Nc1nc(O[C@H]2CCOC2)c2c(-c3ccc4nc(C)oc4c3)c[nH]c2n1 [Example 343, (S)-3-methoxy-4-(5-(2-methylbenzo[d]oxazol-6-yl)-4-(tetrahydrofuran-3-yloxy)-7H-pyrrolo[2,3-d]pyrimidin-2-ylamino)-N-(oxetan-3-yl)benzamide]
19 | 100 to 400 | CNC(=O)c1ccc(-c2c[nH]c3nc(Nc4ccc(C(=O)NC5CN(C)C5)cc4OC)nc(OC4CCOCC4)c23)cc1 [Example 366, 3-methoxy-N-(1-methylazetidin-3-yl)-4-(5-(4-(methylcarbamoyl)phenyl)-4-(tetrahydro-2H-pyran-4-yloxy)-7H-pyrrolo[2,3-d]pyrimidin-2-ylamino)benzamide]
20 | 1000 to 10000 | CNC(=O)c1ccc(Nc2nc(OC3CCCC3)c3c(-c4ccc(OC)cc4OC)c[nH]c3n2)c(OC)c1 [Example 320, 4-(4-(cyclopentyloxy)-5-(2,4-dimethoxyphenyl)-7H-pyrrolo[2,3-d]pyrimidin-2-ylamino)-3-methoxy-N-methylbenzamide]
21 | 100 to 400 | COc1cc(C(=O)NC2CN(C)C2)ccc1Nc1nc(OC2CCC(C)(O)CC2)c2c(-c3ccc4nc(C)oc4c3)c[nH]c2n1 (stereo not shown) [Example 358, 4-(4-((1s,4s)-4-hydroxy-4-methylcyclohexyloxy)-5-(2-methylbenzo[d]oxazol-6-yl)-7H-pyrrolo[2,3-d]pyrimidin-2-ylamino)-3-methoxy-N-(1-methylazetidin-3-yl)benzamide]
22 | 100 to 400 | COc1cc(C(=O)NC2COC2)ccc1Nc1nc(OC)c2c(-c3cnn(C)c3)c[nH]c2n1 [Example 382, 3-methoxy-4-(4-methoxy-5-(1-methyl-1H-pyrazol-4-yl)-7H-pyrrolo[2,3-d]pyrimidin-2-ylamino)-N-(oxetan-3-yl)benzamide]
23 | 100 to 400 | CNC(=O)c1ccc(-c2c[nH]c3nc(Nc4ccc(C(=O)NC5COC5)cc4OC)nc(OC4CC4)c23)cc1 [Example 344, 4-(4-cyclopropoxy-5-(4-(methylcarbamoyl)phenyl)-7H-pyrrolo[2,3-d]pyrimidin-2-ylamino)-3-methoxy-N-(oxetan-3-yl)benzamide]
24 | 1000 to 10000 | COc1nc(Nc2ccc(C(=O)N(C)C)cc2C)nc2[nH]cc(-c3ccc(F)cc3)c12 [Example 390, 4-(5-(4-fluorophenyl)-4-methoxy-7H-pyrrolo[2,3-d]pyrimidin-2-ylamino)-N,N,3-trimethylbenzamide]

Row | SMILES | IC50 [nM]
25 | CNC(=O)c1ccc(-c2c[nH]c3nc(Nc4ccc(C(=O)NC5COC5)cc4OC)nc(OC4CC(C#N)C4)c23)cc1 (stereo not shown) [Example 341, 4-(4-(3-cyanocyclobutoxy)-5-(4-(methylcarbamoyl)phenyl)-7H-pyrrolo[2,3-d]pyrimidin-2-ylamino)-3-methoxy-N-(oxetan-3-yl)benzamide] | < 100
26 | COc1cc(C(=O)NC2COC2)ccc1Nc1nc(OC(C)(C)C)c2c(-c3ccc4nc(C)oc4c3)c[nH]c2n1 [Example 370, 4-(4-tert-butoxy-5-(2-methylbenzo[d]oxazol-6-yl)-7H-pyrrolo[2,3-d]pyrimidin-2-ylamino)-3-methoxy-N-(oxetan-3-yl)benzamide] | < 100
27 | CNC(=O)c1ccc(-c2c[nH]c3nc(Nc4ccc(C(=O)NCCO)cc4OC)nc(OC4CCC4)c23)cc1 [Example 331, 4-(4-cyclobutoxy-5-(4-(methylcarbamoyl)phenyl)-7H-pyrrolo[2,3-d]pyrimidin-2-ylamino)-N-(2-hydroxyethyl)-3-methoxybenzamide] | 100 to 400

same assay, conditions: Homo sapiens, CAL-51; CAL51 cell proliferation; activity level class of IC50; read-out: Act. Level

Row | IC50 [nM] | SMILES
28 | < 100 | CNC(=O)c1ccc(Nc2nc(OC3CCC(O)CC3)c3c(-c4ccc5nc(C)oc5c4)c[nH]c3n2)c(OC)c1 (stereo not shown) [Example 137, 4-(4-((1r,4r)-4-hydroxycyclohexyloxy)-5-(2-methylbenzo[d]oxazol-6-yl)-7H-pyrrolo[2,3-d]pyrimidin-2-ylamino)-3-methoxy-N-methylbenzamide]
